Experimental data taken from PubChem BioAssay AID274 (DTP/NCI, 2004).
“And” between values parts separate entries of the source, which are not always exact repeats. Equal values may be shown once. Inconclusive results and toxic doses are left out. How the source made its calls: active means survival T/C of 150% or more; inactive means T/C below 125% in these data. Numbered stars: 1 amine (or outer) side, 2 acyl side, 3 side chain; on linkers, the order of the positions; unused ones are H or OH. Bridge positions count the residues as written; N and C are the ends. Square brackets hold non-standard residues; d marks the D form. Peptide text beside a SMILES is read from it. I, II: the chains in the order shown. Actinocin(9to1) = Cc1c2oc3c(C)ccc(C(=O)[*:1])c3nc-2c(C(=O)[*:2])c(N)c1=O; NMeV = CN[CH](C(=O)O)C(C)C; Aze = O=C(O)[CH]1CCN1; Sar = CNCC(=O)O

Test system: BDF1 mice, Lewis lung carcinoma iv, survival T/C
Assay: NCI In Vivo Anticancer Drug Screen. Data for tumor model Lewis Lung Carcinoma (intravenous) in B6D2F1 (BDF1) mice
Settings: endpoint: median survival time, higher = longer survival
Procedure: The antitumor activity of compounds was measured in mice bearing transplantable tumors. Survival or tumor size were measured and the results are expressed as the measurement made in the treated group (T) divided by the measurement made in the vehicle treated control group (C). The tumor model used in this assay is Lewis Lung Carcinoma (intravenous) in B6D2F1 (BDF1) mice

[1] = dose: 2.5 mg/kg/injection, schedule: Q01DX009 (ip), vehicle: Klucel (hydroxypropylcellulose) (HPC)
[2] = dose: 5.0 mg/kg/injection, schedule: Q01DX009 (ip), vehicle: Klucel (hydroxypropylcellulose) (HPC)
[3] = dose: 10.0 mg/kg/injection, schedule: Q01DX009 (ip), vehicle: Klucel (hydroxypropylcellulose) (HPC)
[4] = dose: 20.0 mg/kg/injection, schedule: Q01DX009 (ip), vehicle: Klucel (hydroxypropylcellulose) (HPC)
[5] = dose: 40.0 mg/kg/injection, schedule: Q01DX009 (ip), vehicle: Klucel (hydroxypropylcellulose) (HPC)
[6] = dose: 80.0 mg/kg/injection, schedule: Q01DX009 (ip), vehicle: Klucel (hydroxypropylcellulose) (HPC)
[7] = dose: 12.5 mg/kg/injection, schedule: Q01DX009 (ip), vehicle: saline
[8] = dose: 25.0 mg/kg/injection, schedule: Q01DX009 (ip), vehicle: saline
[9] = dose: 12.5 mg/kg/injection, schedule: Q01DX009 (ip), vehicle: saline with Tween-80
[10] = dose: 25.0 mg/kg/injection, schedule: Q01DX009 (ip), vehicle: saline with Tween-80
[11] = dose: 50.0 mg/kg/injection, schedule: Q01DX009 (ip), vehicle: saline with Tween-80
[12] = dose: 50.0 mg/kg/injection, schedule: Q01DX009 (ip), vehicle: Klucel (hydroxypropylcellulose) (HPC)
[13] = dose: 100.0 mg/kg/injection, schedule: Q01DX009 (ip), vehicle: Klucel (hydroxypropylcellulose) (HPC)
[14] = dose: 200.0 mg/kg/injection, schedule: Q01DX009 (ip), vehicle: Klucel (hydroxypropylcellulose) (HPC)
[15] = dose: 400.0 mg/kg/injection, schedule: Q01DX009 (ip), vehicle: Klucel (hydroxypropylcellulose) (HPC)
[16] = dose: 6.25 mg/kg/injection, schedule: Q01DX009 (ip), vehicle: water
[17] = dose: 12.5 mg/kg/injection, schedule: Q01DX009 (ip), vehicle: water

Measured: T/C

CCc1cc(C(N)=S)ccn1
inactive: dose: 72.0 mg/kg/injection, schedule: Q01DX007 (ip), vehicle: Klucel (hydroxypropylcellulose) (HPC) 96 % of control | dose: 102.9 mg/kg/injection, schedule: Q01DX007 (ip), vehicle: Klucel (hydroxypropylcellulose) (HPC) 95 % of control | dose: 147.0 mg/kg/injection, schedule: Q01DX007 (ip), vehicle: Klucel (hydroxypropylcellulose) (HPC) 86 % of control | dose: 300.0 mg/kg/injection, schedule: Q01DX007 (ip), vehicle: Klucel (hydroxypropylcellulose) (HPC) 99 % of control

CC[PH+](CC)CC[S-].CC[PH+](CC)CC[S-].[Au+].[Au+]
inactive: [1] 115 % of control | [2] 102 % of control | [3] 109 % of control | [4] 114 % of control | [5] 102 % of control | [6] 109 % of control

O=C(C1CO1)C(Cl)(Cl)Cl (stereo unspecified)
inactive: [7] 98 % of control | [8] 102 % of control

C1CCC2[N-]CC3CCCCC3[N-]CC3CCCCC3[N-]CC3CCCCC3[N-]CC2C1.[Cu] (stereo unspecified)
inactive: dose: 0.78 mg/kg/injection, schedule: Q01DX009 (ip), vehicle: Klucel (hydroxypropylcellulose) (HPC) 106 % of control | dose: 3.13 mg/kg/injection, schedule: Q01DX009 (ip), vehicle: Klucel (hydroxypropylcellulose) (HPC) 112 % of control | dose: 6.25 mg/kg/injection, schedule: Q01DX009 (ip), vehicle: Klucel (hydroxypropylcellulose) (HPC) 113 % of control

COc1ccc(C(Cn2ccnc2)Sc2ccc(Cl)c(Cl)c2)cc1 (stereo unspecified)
inactive: dose: 6.25 mg/kg/injection, schedule: Q01DX009 (ip), vehicle: saline with Tween-80 95 % of control | [9] 97 % of control | [10] 96 % of control | [11] 100 % of control

C=C1C(=O)OCC2C(C(=O)O)=CC3C(C)C(C)=CC123 (stereo unspecified)
inactive: [1] 87 % of control | [2] 92 % of control | [3] 95 % of control | [5] 91 % of control | [6] 92 % of control

O=C1CC2(C(=O)N1CN1CCOCC1)c1ccccc1-c1ccccc12
inactive: [12] 94 % of control | [13] 98 % of control | [14] 101 % of control | [15] 112 % of control

[CH3][Sn]([CH3])([Cl])[S]CCN
inactive: dose: 3.12 mg/kg/injection, schedule: Q01DX009 (ip), vehicle: saline 91 % of control | dose: 6.25 mg/kg/injection, schedule: Q01DX009 (ip), vehicle: saline 95 % of control | [7] 97 % of control | [8] 91 % of control

Cc1c2oc3c(C)ccc(C(=O)NC4C(=O)NC(C(C)C)C(=O)N5CCC5C(=O)N(C)CC(=O)N(C)C(C(C)C)C(=O)OC4C)c3nc-2c(C(=O)NC2C(=O)NC(C(C)C)C(=O)N3CCC3C(=O)N(C)CC(=O)N(C)C(C(C)C)C(=O)OC2C)c(N)c1=O (stereo unspecified) (I: TV[Aze][Sar][NMeV] / II: TV[Aze][Sar][NMeV]; ester I:1-I:C, II:1-II:C; linker I:N-II:N via Actinocin(9to1); configuration not given here)
inactive: dose: 194.0 micrograms/kg/injection, schedule: Q04DX003 (ip), vehicle: saline + alcohol 87 % of control | dose: 270.0 micrograms/kg/injection, schedule: Q04DX003 (ip), vehicle: saline + alcohol 94 % of control | dose: 324.0 micrograms/kg/injection, schedule: Q04DX003 (ip), vehicle: saline + alcohol 95 % of control | dose: 450.0 micrograms/kg/injection, schedule: Q04DX003 (ip), vehicle: saline + alcohol 95 % of control | dose: 540.0 micrograms/kg/injection, schedule: Q04DX003 (ip), vehicle: saline + alcohol 109 % of control | dose: 648.0 micrograms/kg/injection, schedule: Q01DX001 (ip), vehicle: saline + alcohol 97 % of control | dose: 750.0 micrograms/kg/injection, schedule: Q04DX003 (ip), vehicle: saline + alcohol 108 % of control | dose: 1080.0 micrograms/kg/injection, schedule: Q01DX001 (ip), vehicle: saline + alcohol 98 % of control

CCOC(=O)CNC(=O)CCCCSc1ncnc2nc[nH]c12
inactive: [4] 102 % of control | [5] 106 % of control | [6] 98 % of control | dose: 160.0 mg/kg/injection, schedule: Q01DX009 (ip), vehicle: Klucel (hydroxypropylcellulose) (HPC) 98 % of control | dose: 320.0 mg/kg/injection, schedule: Q01DX009 (ip), vehicle: Klucel (hydroxypropylcellulose) (HPC) 105 % of control

COc1cccc2c1C(=O)c1c(O)c3c(c(O)c1C2=O)C[C@@](O)(/C(C)=N\O)C[C@@H]3OC1CC(N)C(O)C(C)O1 (stereo partly specified)
inactive: dose: 3.13 mg/kg/injection, schedule: Q01DX009 (ip), vehicle: water 108 % of control | [16] 99 % of control | [17] 114 % of control

S=C(Nc1ccc(Cl)c(Cl)c1)N1c2ccccc2-n2cccc2C1c1cccnc1 (stereo unspecified)
inactive: dose: 12.5 mg/kg/injection, schedule: Q01DX009 (ip), vehicle: Klucel (hydroxypropylcellulose) (HPC) 93 % of control and 105 % of control | dose: 25.0 mg/kg/injection, schedule: Q01DX009 (ip), vehicle: Klucel (hydroxypropylcellulose) (HPC) 99 % of control and 91 % of control | [12] 98 % of control and 100 % of control | [13] 94 % of control and 101 % of control | [14] 105 % of control and 110 % of control | [15] 115 % of control

Nc1ccc(OC(=O)Oc2ccc(N)cc2)cc1
inactive: dose: 100.0 mg/kg/injection, schedule: Q01DX009 (ip), vehicle: saline 102 % of control | dose: 200.0 mg/kg/injection, schedule: Q01DX009 (ip), vehicle: saline 113 % of control

Cc1oc2c(C)c3oc(=O)cc(C)c3cc2c1CCl
inactive: [9] 102 % of control | [10] 101 % of control | [11] 95 % of control

CC(=O)NC(C=O)OCC=O (stereo unspecified)
inactive: [16] 101 % of control | [17] 110 % of control | dose: 25.0 mg/kg/injection, schedule: Q01DX009 (ip), vehicle: water 102 % of control | dose: 50.0 mg/kg/injection, schedule: Q01DX009 (ip), vehicle: water 111 % of control | dose: 100.0 mg/kg/injection, schedule: Q01DX009 (ip), vehicle: water 106 % of control

CSc1ccc2c(c1)C(N1CCN(C)CC1)Cc1ccccc1S2 (stereo unspecified)
inactive: dose: 1.56 mg/kg/injection, schedule: Q01DX009 (ip), vehicle: saline with Tween-80 102 % of control

O=c1c(O)c(-c2cc(O)c(O)c(O)c2)oc2cc(O)cc(O)c12
inactive: dose: 6.25 mg/kg/injection, schedule: Q01DX009 (ip), vehicle: other 88 % of control | dose: 12.5 mg/kg/injection, schedule: Q01DX009 (ip), vehicle: other 94 % of control | dose: 25.0 mg/kg/injection, schedule: Q01DX009 (ip), vehicle: other 93 % of control | dose: 50.0 mg/kg/injection, schedule: Q01DX009 (ip), vehicle: other 93 % of control | dose: 100.0 mg/kg/injection, schedule: Q01DX009 (ip), vehicle: other 115 % of control | dose: 200.0 mg/kg/injection, schedule: Q01DX009 (ip), vehicle: other 97 % of control
